Data on 4 compounds can be found in ChEMBL document CHEMBL3639097, “2-aryl imidazo[1,2-a]pyridine-3-acetamide derivatives, preparation methods and uses thereof” (2015).

The structures appear in SMILES notation.

The assay addresses Translocator protein (Rattus norvegicus, UniProt P16257). The experiment in a line: Competitive Binding Assay: Competitive Binding Test of Drug to the Receptor (Rat Heart TSPO) and Radioligand (3H-PK11195): (1) tubes were placed in reaction condition of 30 C.(2) all tubes were added with 20 ug of receptor protein in order;(3) the test tubes were added in order with 20 uL of drugs in certain concentrations;(4) the non-specific binding tubes were added with 20 uL of non-tagged ligand (PK11195), the final concentration of the non-tagged ligand was 0.1 mM, pre-reacted for 30 min;(5) all tubes were added in order with 25 uL 3H-PK11195, the final concentration of the labeled ligand was 1.5 nM;(6) Tris-HCl Buffer pH7.4 was used to complement the reaction volumes of all tubes to reach 200 uL;(7) the reaction was performed under 30 C. reaction condition for 1 h;(8) Then samples were applied to 49-type glass fibre filter, vacuum suction filtered, then washed with 2 ml ice-cold Tris-HCl buffer solution (50 mM Tris-HCl buffer solution, 1 mM EDTA, 5 mM MgCl2, 1 mM PMSF, 0.1% NaN3.
For orientation: IC50 means the concentration at which inhibition is half-maximal. High values mean weaker potency in that assay, low ones greater potency in that assay. As a reminder, the Ki is a dissociation constant, usually derived from enzyme kinetics or from competition with a known ligand. `CCN(Cc1ccccc1)C(=O)Cc1c(-c2ccc(Cl)cc2)nc2cc(C)ccn12` had a 50% inhibitory concentration (IC50) of 16.9 nM and a Ki of 7.17 nM.

For the compound `CCN(Cc1ccccn1)C(=O)Cc1c(-c2ccc(Cl)c(Cl)c2)nc2cc(C)ccn12`, the concentration for half-maximal inhibition (IC50) was found to be 21.9 nM and the affinity corresponds to a Ki of 9.34 nM.

`CCN(Cc1ccncc1)C(=O)Cc1c(-c2ccc(Cl)c(Cl)c2)nc2cc(C)ccn12`: the IC50 was 26 nM and the inhibition constant (Ki) worked out at 11.1 nM.

As for `COCCN(Cc1ccccn1)C(=O)Cc1c(-c2ccc(Cl)c(Cl)c2)nc2cc(C)ccn12`, the IC50 came to 15.6 nM and the inhibition constant Ki turned out to be 6.66 nM.
